The values below come from ChEMBL document CHEMBL1157539, “Thousands of chemical starting points for antimalarial lead identification” (Nature, 2010).

The subject of this assay is Plasmodium falciparum. As to the kind of experiment: GSK_TCMDC: Inhibition of Plasmodium falciparum 3D7 in whole erythrocytes, using parasite LDH activity as an index of growth. Type of assay: functional, organism-based. The settings on record: Plasmodium falciparum, 3D7.
On to `CCCCOc1ccccc1C(=O)NCc1csc(-c2ccccc2)n1`, for which the XC50 worked out at 556 nM.

In the case of `COc1ccc2nc3cc(Cl)ccc3c(NCCCCN)c2c1`, the XC50 is 732 nM.

For the compound `COc1cccc(Nc2nc(NCCO)c3ccccc3n2)c1`, the XC50 turned out to be 151 nM.

As to `C=C(C)C1CC=C(CN2CCCC(n3ccc4cc(NC(=O)c5ccco5)ccc43)CC2)CC1` (stereo not given), the XC50 turned out to be 753 nM.

`CCc1c(C)c2ccc3c(c2oc1=O)CN(CCc1ccc(F)cc1)CO3` registered an XC50 of 1230 nM.

The compound `CCCC1N=C(N)N=C(N)N1c1ccc(Cl)cc1` (stereo not given) displayed an XC50 of 46.7 nM.

For the compound `CCOC(=O)CCCCCNC[C@H](O)c1ccccc1`, the XC50 worked out at 328 nM.

As for `CC(=O)c1ccc(NC(=O)NNC(=O)c2ccc(CCN3CCC(c4nc(COCC(F)(F)F)c(-c5ccc(F)cc5)o4)CC3)cc2)cc1`, the XC50 was found to be 835 nM.

The compound `CCCNCc1ccc(-c2ccc(CN(CC3CCCO3)C(=O)C3CC(=O)c4ccccc43)cc2)nc1` (stereo not given) showed an XC50 of 860 nM.

Regarding `COc1ccc(NC(=O)CCNc2cc(C)nc(NCc3cccc(C)c3)n2)cc1`, the XC50 amounted to 1090 nM.

Take `N#Cc1ccc(-c2ccc(C(=O)NCCCCN3CCC(c4ccc5c(c4OCc4ccccn4)CCCC5)CC3)cc2)cc1`: the XC50 was found to be 824 nM.

Turning to `CNc1ccc(CNCc2cccc(-c3ccc(-c4nc5cccc(C)c5[nH]4)cc3)c2)cc1`, the XC50 turned out to be 660 nM.

The compound `CCN(CCCN1CCCCC1)c1cc(C)nc(Nc2ccc(Cl)cc2C)n1` yielded an XC50 of 729 nM.

As to `CC[C@H]1CN2CC[C@H]1C[C@H]2[C@H](O)c1cc(-c2ccc(SC)cc2)nc2ccc(OC)cc12`, the XC50 was 64.1 nM.

The compound `O=C1CSc2ccc(CNC3CCN(CCc4c(Cl)cnc5ccc(Cl)cc45)CC3)nc2N1` had an XC50 of 229 nM.

On to `COc1ccccc1CCN(C)CCN1CCC(NC(=O)c2ccc(-c3ccc(C(F)(F)F)cc3)cc2)CC1`, for which the XC50 is 1030 nM.

Consider `CC(C)(C)CC(C)(C)c1ccc(O)c(C(=O)Nc2ccc([N+](=O)[O-])cc2)c1`, for which the XC50 is 774 nM.

With `COc1ccc(-c2ccc(NC(=O)c3cccc(Cl)c3)c(F)c2)cc1CN1CCCN(C)CC1`, the XC50 worked out at 679 nM.

`CCNc1cc(C(=O)N[C@@H](Cc2ccccc2)[C@H](O)CNC(C)(C)CSCC(C)C)cc(N2CCCC2=O)c1` yielded an XC50 of 260 nM.

Compound `Cc1sc2nc(CSc3ccccc3)nc(N3CCN(CC(=O)N4CCCC4)CC3)c2c1C` gave an XC50 of 1260 nM.

The compound `COc1cccc(CN2CCCN(Cc3cccc(NC(=O)c4ccc(-c5ccccc5)cc4)c3)CC2)c1` returned an XC50 of 244 nM.

As to `CN1CCN(c2ncnc3ccc(NC(=O)Nc4ccc(Cl)c(Cl)c4)cc23)CC1`, the XC50 is 264 nM.

Turning to `CCNc1cc(C(=O)N[C@@H](Cc2ccccc2)[C@H](O)CNC(C)(C)CCCC(C)C)cc(N2CCCCS2(=O)=O)c1`, the XC50 amounted to 446 nM.

`Cc1ccc(S(=O)(=O)n2cc(-c3ccnc(N)c3)c3cc(Br)cnc32)cc1`: the XC50 was determined as 896 nM.

`N#Cc1ccc(-c2ccc(C(=O)NCCCCN3CCC(c4ccncc4)CC3)cc2)cc1`: the XC50 was 813 nM.

Consider `CS(=O)(=O)CCNCc1cccc(-c2cc3nccc(Nc4ccc(Oc5ccccc5)cc4)c3cc2Cl)c1`, for which the XC50 came out at 625 nM.

With `Cc1ccc2[nH]c(C)cc(=NN=Cc3ccccc3F)c2c1`, the XC50 came out at 171 nM.

In turn, `O=C(/C=C/c1ccc(Cl)c(Cl)c1)NCCCCCN1CCCN(C(=O)Nc2ccc(OC(F)F)cc2)CC1` yielded an XC50 of 833 nM.

The compound `COc1ccc(Nc2nccc(N3CCC(NS(=O)(=O)c4ccc(NC(C)=O)cc4)C3)n2)cc1` (stereo not given) yielded an XC50 of 795 nM.

Take `O=C(NC1CCCCC1)N(Cc1ccc(-c2cccc(CNC3CCCC3)c2)cc1)C1CCN(Cc2ccccc2)CC1`: the XC50 amounted to 785 nM.

`Clc1cccc(Nc2ccc3c(N4CCCCC4)ncnc3n2)c1` gave an XC50 of 577 nM.

As to `CN(C)C(S)=NN=Cc1cccc(O)c1O`, the XC50 was 872 nM.

For the compound `COc1ccc(C[C@@H](C)NC[C@H](O)c2cccc(Cl)c2)cc1F`, the XC50 was 867 nM.

The compound `CCCCCCOc1ccc(C(=O)NCCCC2CCCN(CCCCCNC(=O)C=Cc3ccc(Cl)c(Cl)c3)C2)cc1` (stereo not given) yielded an XC50 of 703 nM.

`CCCCn1c(Sc2ccc(C#N)c([N+](=O)[O-])c2)nnc1-c1cc(OC)cc(OC)c1` showed an XC50 of 824 nM.

Compound `COc1cc(C=Cc2ccc3ccccc3n2)cc(Br)c1OCC(=O)N(C)C` returned an XC50 of 1100 nM.

`Cc1cnn(-c2cccc(C(=O)NC3CCC(CCN4CCc5ccc(C#N)cc5CC4)CC3)c2)c1` (stereo not given) showed an XC50 of 932 nM.

Consider `CSC1=NC(C)(C)CC2(CC(c3cccc(C)c3)c3cc(Cl)c(O)cc3O2)N1` (stereo not given), for which the XC50 is 879 nM.

As for `CCS(=O)(=O)N1CCN(c2nc(-c3ccccc3)nc(COC)c2Cc2ccccc2F)CC1`, the XC50 turned out to be 1450 nM.

As for `CS(=O)(=O)c1ccc(CNCc2ccc(-c3cccc(-c4nc5cc(C(F)(F)F)ccc5[nH]4)c3)cc2)cc1`, the XC50 was 138 nM.

Regarding `O=c1n[n+](C2CCCCC2)[n-]o1`, the XC50 amounted to 934 nM.

`OCC1CCN(Cc2ccc(-c3cccc(-c4nc5ccccc5[nH]4)c3)cc2)CC1`: the XC50 stood at 813 nM.

In the case of `CCNc1cc(C(=O)N[C@@H](Cc2ccccc2)[C@H](O)CNC(CC)c2cccc(Cl)c2)cc(N2CCCC2=O)c1` (stereo not given in full), the XC50 stood at 31.6 nM.

`CCCCN(CCCC)CCC(O)C(=Cc1ccc(Cl)cc1Cl)c1ccc(C(F)(F)F)cc1N` (stereo not given) had an XC50 of 193 nM.

As to `COc1ccccc1NC(=O)Nc1ccc(-c2ccc(-c3nc4cccc(C)c4[nH]3)s2)cc1`, the XC50 was found to be 158 nM.

In turn, `CC(=O)Nc1ccc(CN2CCCN(c3cc(NC(=O)c4cccc(C)c4)ccn3)CC2)cc1` showed an XC50 of 863 nM.

`CCc1cn(CCOC)c2ccc(C(=O)N[C@@H](Cc3ccccc3)[C@H](O)CNC(C)(C)CCCC(C)C)cc12` yielded an XC50 of 569 nM.

For `Oc1cc2c(cc1CN1CCN(Cc3ccccc3)CC1)CCC2`, the XC50 came to 721 nM.

In turn, `O=S(=O)(Nc1cc2c(cc1O)CCNCC2)c1ccc(-c2ccc(Cl)cc2)cc1` registered an XC50 of 980 nM.

The compound `O=C(/C=C/c1ccc(Cl)c(Cl)c1)NCCCCCCN1CCN(C(=O)Nc2ccc(Cl)c(C(F)(F)F)c2)CC1` returned an XC50 of 526 nM.

`COc1cccc(CN2CCCN(Cc3cccc(NC(=O)c4ccc(Cl)c(Cl)c4)c3)CC2)c1` displayed an XC50 of 1460 nM.

As to `N=C(N)Nc1ccc(NC(=O)Nc2ccc(NC(=N)N)cc2)cc1`, the XC50 worked out at 386 nM.

The compound `N#Cc1cccc(NC(=O)Nc2cccc(-c3cccc(-c4nc5cc(C(F)(F)F)ccc5[nH]4)c3)c2)c1` came in with an XC50 of 224 nM.

As to `COc1ccc(CNC2CCN(C)CC2)cc1-c1ccc(S(=O)(=O)NCc2ccccc2)s1`, the XC50 stood at 230 nM.

`Cc1c(C)c2c(c(C)c1O)CC[C@](C)(C(=O)N1CCC(CCN3CCC(c4c[nH]c5ccccc45)CC3)CC1)O2` displayed an XC50 of 834 nM.

With `N=C(N)NC(=O)Nc1ccc(Cl)c(Cl)c1`, the XC50 turned out to be 1040 nM.

For the compound `Cc1[nH]c(C)c(-c2ccc(OCc3ccc(OC(F)(F)F)cc3)nc2)c(=O)c1Br`, the XC50 is 140 nM.

For `Cn1nc(C(F)(F)F)c(-c2ccc(Br)cc2)c1NC(=O)Nc1ccc(F)cc1F`, the XC50 worked out at 793 nM.

`Cc1noc(C)c1-c1ccc2c(Nc3cccc4c3-c3ccccc3C4=O)c(C(=O)NCc3ccccc3I)cnc2c1`: the XC50 is 627 nM.

Regarding `O=C(NCc1cccc(F)c1)Nc1cccc(-c2ccc(-c3nc4cc(F)ccc4[nH]3)cc2)c1`, the XC50 was 1050 nM.

Consider `COc1ccc(CN(C)CCCc2ccc(NC(=O)c3cc4ccccc4[nH]3)cc2)cc1OC`, for which the XC50 was determined as 725 nM.

For `Cc1cc(NC(=O)NCCN2CCC(NS(=O)(=O)c3cccc(Br)c3)C2)c2ccccc2n1` (stereo not given), the XC50 came to 606 nM.

On to `COc1ccc2nccc(N3CCC(NCCNCc4cc5c(cn4)OCCO5)C3)c2n1` (stereo not given), for which the XC50 turned out to be 578 nM.

Turning to `CCn1ccc2c(N3CCCS3(=O)=O)cc(C(=O)N[C@@H](Cc3ccccc3)[C@H](O)CNC(C)(C)CCCC(C)C)cc21`, the XC50 turned out to be 491 nM.

For the compound `Fc1ccc(NC(=S)NCCc2ccccc2)cc1`, the XC50 turned out to be 781 nM.

On to `Cc1nc(N)nc(N)c1-c1ccc(Br)c([N+](=O)[O-])c1`, for which the XC50 amounted to 201 nM.

The compound `O=C(CCCCCc1ccccc1)NC1CCC(CN2CCC(c3c[nH]c4ccccc34)CC2)CC1` (stereo not given) had an XC50 of 1140 nM.

`C=C[C@H]1CN2CC[C@@H]1C[C@H]2[C@H](O)c1cc(-c2ccc(F)cc2)nc2ccc(OC)cc12` came in with an XC50 of 169 nM.

Turning to `COc1ccc2nccc([C@@H](O)CN3CCC(NC(=O)C(c4cc5ccccc5o4)N4CCN(c5ccccc5)CC4)CC3)c2c1` (stereo not given in full), the XC50 is 238 nM.

The compound `COc1cc2nc(N3CC(C)N(C(=O)Cc4ccc(-c5ccccc5)cc4)C(C)C3)nc(N)c2cc1OC` (stereo not given) gave an XC50 of 796 nM.

With `O=C(CSc1nnc(O)n1Cc1ccccc1)Nc1ccccc1-c1ccccc1`, the XC50 is 953 nM.

On to `CN(c1ccc2c(c1)nc(Nc1cc(C(C)(C)C)on1)n2C)c1ccnc(Nc2ccc(CS(C)(=O)=O)cc2)n1`, for which the XC50 worked out at 900 nM.

`CN(C)CCCOC(=O)c1cc2cc(-c3ccccc3)ccc2n1S(=O)(=O)Cc1ccccc1` returned an XC50 of 361 nM.

`Cc1cc(N2CCCC2)nc(Nc2ccc(NC(=O)C3CCCC3)cc2)n1`: the XC50 was found to be 1110 nM.

Compound `O=C1COc2ccc3ccccc3c21` returned an XC50 of 701 nM.

In turn, `CCS[C@@H]1O[C@H](COC(=O)c2ccccc2)[C@H](OC(=O)c2ccccc2)[C@H](OC(=O)c2ccccc2)[C@H]1OC(=O)c1ccccc1` had an XC50 of 808 nM.

In turn, `Cn1cncc1C(=O)Nc1cccc(-c2cccc(-c3nc4cc(C(F)(F)F)ccc4[nH]3)c2)c1` gave an XC50 of 205 nM.

`COc1ccc2nccc([C@@H](O)CN3CCC(NC(=O)/C(=C/c4ccccc4)c4ccc(-c5ccccc5)cc4)CC3)c2c1` registered an XC50 of 1050 nM.

With `Cc1nc(-c2nc(NCCc3ccncc3)ncc2-c2ccsc2)sc1C`, the XC50 was determined as 298 nM.

For `O=C(Nc1ccc(F)cc1F)NC1CCN(c2ccnc3cc(Cl)ccc23)C1` (stereo not given), the XC50 was 245 nM.

`Cc1c(F)cc(C(=O)NC2CC2)cc1-c1ccc2c(cnn2S(=O)(=O)c2ccc(F)c(F)c2)c1` came in with an XC50 of 265 nM.

The compound `Cc1cccc2nc(-c3ccc(-c4ccc(NC(=O)C5CCN(C)CC5)cc4)cc3)[nH]c12` displayed an XC50 of 748 nM.

Regarding `NC1=NC2(CCCC2)C(c2ccc(Cl)c(Cl)c2)C(N)=N1` (stereo not given), the XC50 was determined as 987 nM.

With `O=C(Nc1ccc(-c2ccccc2)cc1)Nc1cccc(Cn2nc(Cl)c(N3CCCNCC3)cc2=O)c1`, the XC50 turned out to be 676 nM.

As for `N#Cc1cccc(CN(Cc2ccc(Cl)c(Cl)c2)S(=O)(=O)c2cccc([N+](=O)[O-])c2)c1`, the XC50 amounted to 808 nM.
